Results as given in patent publication US10611760B2, “Therapeutic compounds as inhibitors of the orexin-1 receptor” (C4X Discovery Limited, priority 2014, dated 2020).

Assays:
Assay type in all cases: cell-based
hOX1R [1] = molecular target: T1, hOX1R (Homo sapiens, UniProt O43613); test: Intracellular calcium measurements using division-arrested cells, OX1; conditions: agonist orexin A at 2×EC50, * = single experiment, otherwise average of at least two, read-out: pIC50 OX1 (converted)
T1 sequence (O43613 1-425): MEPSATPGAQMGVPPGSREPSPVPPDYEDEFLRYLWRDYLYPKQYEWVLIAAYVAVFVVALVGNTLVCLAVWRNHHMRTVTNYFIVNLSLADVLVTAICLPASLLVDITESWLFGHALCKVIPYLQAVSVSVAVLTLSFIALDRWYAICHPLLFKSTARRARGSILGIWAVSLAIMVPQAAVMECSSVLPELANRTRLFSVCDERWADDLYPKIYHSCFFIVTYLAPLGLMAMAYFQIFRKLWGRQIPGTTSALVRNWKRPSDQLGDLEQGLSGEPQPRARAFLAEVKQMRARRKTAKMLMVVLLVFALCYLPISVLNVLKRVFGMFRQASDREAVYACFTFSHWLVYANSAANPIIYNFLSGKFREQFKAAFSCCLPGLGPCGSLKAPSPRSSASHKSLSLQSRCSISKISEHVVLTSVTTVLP
In short: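 Division-arrested cells expressing human OX1 or OX2 were seeded for 16 h, then loaded with Calcium 5 dye plus probenecid for 1 h at 37 °C. Compounds in HEPES-buffered HBSS with 0.1% BSA, pH 7.4, top final concentration 10 μM, were added 10 min before the FlexStation calcium read.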

hOX2R [2] = molecular target: T2, hOX2R (Homo sapiens, UniProt O43614); test: Intracellular calcium measurements using division-arrested cells, OX2; conditions: agonist orexin B at 2×EC50, * = single experiment, otherwise average of at least two, read-out: pIC50 OX2 (converted)
T2 sequence (O43614 1-444): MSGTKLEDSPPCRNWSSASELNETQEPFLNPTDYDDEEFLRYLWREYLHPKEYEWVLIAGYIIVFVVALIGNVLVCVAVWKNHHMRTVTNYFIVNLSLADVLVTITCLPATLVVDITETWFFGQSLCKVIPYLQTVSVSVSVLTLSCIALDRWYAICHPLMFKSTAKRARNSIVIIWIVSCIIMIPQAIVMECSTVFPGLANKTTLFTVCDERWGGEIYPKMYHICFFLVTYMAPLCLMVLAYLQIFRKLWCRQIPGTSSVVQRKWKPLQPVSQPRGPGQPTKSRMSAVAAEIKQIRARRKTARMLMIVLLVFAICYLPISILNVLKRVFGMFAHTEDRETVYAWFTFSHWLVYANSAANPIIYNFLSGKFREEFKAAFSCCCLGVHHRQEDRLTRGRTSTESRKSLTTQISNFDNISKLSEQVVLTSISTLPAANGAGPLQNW
Method: Intracellular Calcium Measurements Using Division-arrested Cells (Table 1):
Test compounds are prepared as 10 mM stock solutions in DMSO, then serially diluted in half log concentrations with DMSO followed by dilution with assay buffer (HBSS (Sigma-Aldrich, H8264) containing 20 mM HEPES (Sigma-Aldrich, H4034), 0.1% (w/v) bovine serum albumin and adjusted to pH 7.4) to a top final assay concentration of 10 μM.
Human OX1 (CT-A474) and human OX2 (CT-A475) receptor-expressing division-arrested cells are plated into 384 well black, clear bottom, cell-bind plates at a seeding density of 10,000 cells/50 μL growth media. The seeded plates are incubated at 37° C. in air supplemented with 5% CO2 for 16 hrs.
The media is removed and replaced with 30 μL/well of cell loading buffer (a vial of Calcium 5 is solubilized in 22 mL of assay buffer to which a freshly prepared 250 mM solution of probenecid in 1:1 1M NaOH to assay buffer (200 μL) is added) and the cells incubated for 1 hr at 37° C. The serially diluted test compounds (10 μL/well) are added to the plate, which is then incubated for 10 mins and placed in a FlexStation III reader.

hOX1R [3] = molecular target: T1, hOX1R; test: Intracellular calcium measurements using stable-replicating cells, Method B (CHO cells, FLIPR Tetra), OX1; conditions: orexin A at EC75, read-out: pIC50 OX1 (converted)
Method: (§1) Intracellular Calcium Measurements Using Stable-replicating Cells:
(§2) Human OX1 or human OX2 receptor expressing CHO cells are plated into 384 well black, clear bottom, CellBIND plates at a seeding density of 10,000 cells/75 μL growth media. The seeded plates are incubated at 37° C. in air supplemented with 5% CO2 overnight.
(§3) The next day media is removed and replaced with 30 μL/well of cell loading buffer (a vial of Calcium 5 is solubilized in 20 mL of assay buffer) and the cells incubated for 1 hr at 37° C. The serially diluted test compounds (10 μL/well) are added to the cell plate by the FLIPR Tetra and the addition is monitored for 5 mins by the instrument. The cell plate is then removed and incubated for additional 25 mins in a humidified incubator at […] prior to being placed back into the FLIPR Tetra. Finally 10 μL of orexin A in assay buffer +0.1% (w/v) bovine serum albumin is dispensed by the FLIPR Tetra at an EC75 concentration determined for each assay run. Fluorescence is measured at excitation and emission wavelengths of 485 nm and 525 nm respectively and data analyzed using GraphPad Prism for the EC75 value of orexin A and Aplus to determine an IC50 value for each test compound.

hOX2R [4] = molecular target: T2, hOX2R; test: Intracellular calcium measurements using stable-replicating cells, Method B (CHO cells, FLIPR Tetra), OX2; conditions: orexin A at EC75, read-out: pIC50 OX2 (converted)
Method: as §1, §2, §3

hOX1R [5] = molecular target: T1, hOX1R; test: Intracellular calcium measurements using stable-replicating cells, Method A, OX1; conditions: orexin-A at 4×EC50, * = single experiment, read-out: pIC50 OX1 (converted)
Method: as §1
(§4) Method A (Table 2): Test compounds are prepared as 10 mM stock solutions in DMSO, warmed briefly for 20 seconds at 37° C. and serially diluted in half log concentrations with DMSO followed by dilution with assay buffer (HBSS (Sigma-Aldrich, H8264) containing 10 mM HEPES (Invitrogen, 15630080) and pH adjusted to 7.4) to a top final assay concentration of 10 μM.
(§5) Human OX1 (CT-A674) and human OX2 (CT-A675) receptor-expressing stable-replicating cells are grown in a culture medium, Ham F12 (Invitrogen, 31765-035) containing 10% fetal bovine serum (Invitrogen, 16000044), 1% non-essential amino acids (Invitrogen, 11140-050), 100 U/mL Penicillin/Streptomycin (Invitrogen, 15140-122) and G418 (Invitrogen, 11811023) at a concentration of 400 μg/mL. The cells are seeded at a density of 7,000 cells/well into black, clear bottom 384-well plates (Corning, 3683) and incubated at 37° C. in air supplemented with 5% CO2 for 16 hrs.
(§6) Loading dye (25 μL/well), prepared from a FLIPR Calcium 6 Assay kit (Molecular Devices, R8190-Explorer) according to the manufacturer's instructions, and the serially diluted test compounds (10 μL/well) are added to the plate. The plate is then incubated for 30 mins at 37° C. in 5% CO2, then for 30 mins at ambient temperature and placed into a FlexStation III reader.

hOX2R [6] = molecular target: T2, hOX2R; test: Intracellular calcium measurements using stable-replicating cells, Method A, OX2; conditions: orexin-A at 4×EC50, * = single experiment, read-out: pIC50 OX2 (converted)
Method: as §1, §4, §5, §6

| Compound | IC50 (hOX1R [1]) | IC50 (hOX2R [2]) | IC50 (hOX1R [3]) | IC50 (hOX2R [4]) | IC50 (hOX1R [5]) | IC50 (hOX2R [6]) |
| --- | --- | --- | --- | --- | --- | --- |
| CC[C@@H](CNc1ccc(Cl)cn1)N(C)C(=O)c1cc(C(F)(F)F)cnc1-n1nccn1 [Example 24, (S)—N-(1-((5-chloropyridin-2-yl)amino)butan-2-yl)-N-methyl-2-(2H-1,2,3-triazol-2-yl)-5-(trifluoromethyl)nicotinamide] | 2000 nM | > 10000 nM | 3980 nM | > 10000 nM |  |  |
| CC[C@@H](CNc1nc2ccccc2o1)N(C)C(=O)c1nc(C)ccc1-n1nccn1 [Example 62, (S)—N-(1-(benzo[d]oxazol-2-ylamino)butan-2-yl)-N,6-dimethyl-3-(2H-1,2,3-triazol-2-yl)picolinamide] |  |  | 3.16 nM | 2510 nM | 5.01 nM |  |
| CC[C@@H](CNc1ccc(C(F)(F)F)nn1)N(C)C(=O)c1cc(Cl)ccc1-n1nccn1 [Example 41, (S)-5-chloro-N-methyl-2-(2H-1,2,3-triazol-2-yl)-N-(1-((6-(trifluoromethyl)pyridazin-3-yl)amino)butan-2-yl)benzamide] | 200 nM | > 10000 nM | 20 nM | > 5010 nM |  |  |
| CC[C@@H](CNc1ncc(Cl)cc1N)N(C)C(=O)c1cc(Cl)ccc1-n1nccn1 [Example 60, (S)—N-(1-((3-amino-5-chloropyridin-2-yl)amino)butan-2-yl)-5-chloro-N-methyl-2-(2H-1,2,3-triazol-2-yl)benzamide] |  |  |  |  | 39.8 nM | > 10000 nM |
| CC[C@@H](CNc1nc2cc(Cl)ccc2o1)N(C)C(=O)c1nc(C)ccc1-n1nccn1 [Example 64, (S)—N-(1-((5-chlorobenzo[d]oxazol-2-yl)amino)butan-2-yl)-N,6-dimethyl-3-(2H-1,2,3-triazol-2-yl)picolinamide] |  |  |  |  | 5.01 nM | 2510 nM |
| CC[C@@H](CNc1ncc(Cl)cc1[N+](=O)[O-])N(C)C(=O)c1cc(Cl)ccc1-n1nccn1 [Example 45, (S)-5-chloro-N-(1-((5-chloro-3-nitropyridin-2-yl)amino)butan-2-yl)-N-methyl-2-(2H-1,2,3-triazol-2-yl)benzamide] |  |  |  |  | 126 nM | > 10000 nM |
| CC[C@@H](CNc1ccc(Cl)cn1)N(C)C(=O)c1cc(C)ccc1-n1nccn1 [Example 1, (S)—N-(1-((5-chloropyridin-2-yl)amino)butan-2-yl)-N,5-dimethyl-2-(2H-1,2,3-triazol-2-yl)benzamide] |  | 1000 nM |  |  |  | 1260 nM |
| Cc1ccc(-n2nccn2)c(C(=O)N(C)[C@H](CNc2ccc(Cl)cn2)C(C)C)c1 [Example 49, (S)—N-(1-((5-chloropyridin-2-yl)amino)-3-methylbutan-2-yl)-N,5-dimethyl-2-(2H-1,2,3-triazol-2-yl)benzamide] | 31.6 nM | > 5010 nM | 5.01 nM | > 3980 nM |  |  |
| CC[C@@H](CNc1ccc(Cl)cn1)N(C)C(=O)c1cc(Br)ccc1-n1nccn1 [Example 19, (S)-5-bromo-N-(1-((5-chloropyridin-2-yl)amino)butan-2-yl)-N-methyl-2-(2H-1,2,3-triazol-2-yl)benzamide] | 25.1 nM | 1580 nM | 1.58 nM | 501 nM |  |  |
| CC[C@@H](CNc1ccc(Cl)cn1)N(C)C(=O)c1cc(OC(F)(F)F)ccc1-n1nccn1 [Example 20, (S)—N-(1-((5-chloropyridin-2-yl)amino)butan-2-yl)-N-methyl-2-(2H-1,2,3-triazol-2-yl)-5-(trifluoromethoxy)benzamide] | 200 nM |  | 100 nM | 3160 nM |  |  |
| CC[C@@H](CNc1ncc(C(F)(F)F)cn1)N(C)C(=O)c1cc(Cl)ccc1-n1nccn1 [Example 39, (S)-5-chloro-N-methyl-2-(2H-1,2,3-triazol-2-yl)-N-(1-((5-(trifluoromethyl)pyrimidin-2-yl)amino)butan-2-yl)benzamide] |  | 1000 nM |  | 1580 nM |  | > 10000 nM |
| CC[C@@H](CNc1nc2ccccc2s1)N(C)C(=O)c1cc(Cl)ccc1-n1nccn1 [Example 44, (S)—N-(1-(benzo[d]thiazol-2-ylamino)butan-2-yl)-5-chloro-N-methyl-2-(2H-1,2,3-triazol-2-yl)benzamide] |  |  | 1.58 nM |  | 7.94 nM |  |
| CC[C@@H](CNc1ccc(Cl)cn1)N(C)C(=O)c1cc(C)c(C)cc1-n1nccn1 [Example 86, (S)—N-(1-((5-chloropyridin-2-yl)amino)butan-2-yl)-N,4,5-trimethyl-2-(2H-1,2,3-triazol-2-yl)benzamide] |  |  |  |  | 7.94 nM | 316 nM |
| CC[C@@H](CNc1ncc(C(F)(F)F)cn1)N(C)C(=O)c1c(F)cccc1-n1nccn1 [Example 91, (S)-2-fluoro-N-methyl-6-(2H-1,2,3-triazol-2-yl)-N-(1-((5-(trifluoromethyl)pyrimidin-2-yl)amino)butan-2-yl)benzamide] |  |  | 25.1 nM | > 7940 nM |  |  |
| Cc1ccc(-n2nccn2)c(C(=O)N(C)[C@H](CNc2ccc(C(F)(F)F)cn2)C(C)C)n1 [Example 69, (S)—N,6-dimethyl-N-(3-methyl-1-((5-(trifluoromethyl)pyridin-2-yl)amino)butan-2-yl)-3-(2H-1,2,3-triazol-2-yl)picolinamide] |  |  | 3.16 nM | 3160 nM |  |  |
